Legend:
Type in all cases: cell-based, murine
heme oxygenase 1 (HO-1) = assay: Nrf2-dependent HO-1 transcription in RAW264.7 cells (qPCR, Taqman); details: for HO-1 steady-state mRNA levels, fold vs media and vehicle controls: 8 hours (maximum)
Experimental: (§1) Murine macrophage cells (RAW264.7) were treated with the purified thiolated NO2—OA for 4 hours. RNA was extracted using the Trizol method, quantified using nanodrop technology, reversed transcribed into cDNA and then quantitative PCR was performed using Taqman assays. […] The concentration of 50 μM OA-NO2—Sx induced a similar Nrf2 activation profile for HO-1, NQO-1 and GCLM (18.0-, 6.8- and 6.3-fold, respectively) as 5 μM OA-NO2 (23.5-, 7.7-, 6.8-fold for HO-1, NQO1 and GCLM, respectively) at the 4 hour time point.
(§2) Experimental details: In every experiment, RAW264.7 cells were treated with 7.5, 15, 50 and 100 μM OA-NO2—Sx, 5 μM OA-NO2 two concentrations of methanol (MeOH) to match the lowest and highest amount of vehicle (5 and 100 μM) and a media control only. Within each experiment, there were two or three biological replicates per treatment group. After treatment, RNA was extracted using the Trizol method, quantified using nanodrop technology, reversed transcribed into cDNA and then quantitative PCR (qPCR) was performed using Taqman assays. In each qPCR experiment, there were two technical replicates per sample of RNA. The two technical replicates were then averaged for each biological replicate. The bars in the graph represent mean±standard error of the mean (SEM) of the biological replicates.
(§3) Murine macrophage cells (RAW264.7) were treated with 50 μM OA-NO2—Sx, 5 μM OA-NO2, MeOH (the highest amount of vehicle added to RAW cells to match the highest concentration, which is 50 μM for OA-NO2—Sx) and media alone for 4, 8, 16 and 24 hours. RNA was extracted at each time point using the Trizol method, quantified using nanodrop technology, reversed transcribed into cDNA and then quantitative PCR was performed using Taqman assays. […] There was a similar trend for GCLM mRNA levels (FIG. 7) remained elevated for OA-NO2—Sx (30.0-fold) compared to 1.7-fold for 5 μM OA-NO2 treatment at 16 hours.
(§4) Experimental details: Murine macrophage cells (RAW264.7) were treated with 50 μM OA-NO2—Sx, 5 μM OA-NO2, MeOH (the highest amount of vehicle added to RAW cells to match the highest concentration, which is 50 μM for OA-NO2—Sx) and media alone for 4, 8, 16 and 24 hours. RNA was extracted at each time point using the Trizol method, quantified using nanodrop technology, reversed transcribed into cDNA and then quantitative PCR for HO-1, NQO-1 and GCLM (multiplexed with actin) was performed using Taqman assays. Within each independent experiment, every treatment had at least two biological replicates at each time point. The data represents two independent experiments as mean±SEM.

[1] = tested on: NAD(P)H dehydrogenase quinone 1 (NQO-1); assay: Nrf2-dependent NQO-1 transcription in RAW264.7 cells (qPCR, Taqman); details: for NQO-1 transcription, fold vs controls / NQO-1 mRNA levels, fold: RAW264.7
Experimental: as §1, §2, §3, §4

[2] = tested on: glutamate-cysteine ligase modifier subunit (GCLM); assay: Nrf2-dependent GCLM transcription in RAW264.7 cells (qPCR, Taqman); details: for GCLM transcription, fold vs controls / GCLM mRNA levels, fold: RAW264.7; for GCLM mRNA levels, fold: 16 hours
Experimental: as §1, §2, §3, §4

[3] = 7.5, 15, 50 and 100 μM, 4 hours, compared to controls

Row | Compound | HO-1 transcription, fold vs controls (heme oxygenase 1 (HO-1); 50 μM OA-NO2—Sx, 4 hours, RAW264.7) | HO-1 steady-state mRNA levels, fold vs media and vehicle controls (heme oxygenase 1 (HO-1); 50 μM, RAW264.7) | HO-1 mRNA levels, fold (heme oxygenase 1 (HO-1); 50 μM, 16 hours, RAW264.7) | HO-1 mRNA levels (heme oxygenase 1 (HO-1); 50 μM, 24 hours, RAW264.7) | Nrf2-dependent transcription of HO-1, dose response (heme oxygenase 1 (HO-1); [3]) | NQO-1 transcription, fold vs controls ([1]; 50 μM OA-NO2—Sx, 4 hours) | NQO-1 mRNA levels, fold ([1]; 50 μM, 16 hours) | Nrf2-dependent transcription of NQO-1, dose response [1, 3] | GCLM transcription, fold vs controls ([2]; 50 μM OA-NO2—Sx, 4 hours) | GCLM mRNA levels, fold ([2]; 50 μM) | Nrf2-dependent transcription of GCLM, dose response [2, 3] | HO-1 transcription, fold vs controls (heme oxygenase 1 (HO-1); 5 μM OA-NO2, 4 hours, RAW264.7) | HO-1 steady-state mRNA levels, fold vs media and vehicle controls (heme oxygenase 1 (HO-1); 5 μM, RAW264.7) | HO-1 mRNA levels (heme oxygenase 1 (HO-1); 5 μM, 16 hours, RAW264.7) | HO-1 mRNA levels (heme oxygenase 1 (HO-1); 5 μM, 24 hours, RAW264.7) | NQO-1 transcription, fold vs controls ([1]; 5 μM OA-NO2, 4 hours) | NQO-1 mRNA levels, fold ([1]; 5 μM, 8 hours) | NQO-1 mRNA levels, fold ([1]; 5 μM, 16 hours) | GCLM transcription, fold vs controls ([2]; 5 μM OA-NO2, 4 hours) | GCLM mRNA levels, fold ([2]; 5 μM)
1 | CCCCCCCCC(SC(CCCCCCCC)C(CCCCCCCC(=O)O)[N+](=O)[O-])C(CCCCCCCC(=O)O)[N+](=O)[O-] (centres unmarked) [OA-NO2—Sx, thiolated nitro-oleic acid] | 18.0 fold | 116.5 fold | 7.5 fold | returned to basal levels | dose-dependent increase | 6.8 fold | 701.1 fold | dose-dependent increase | 6.3 fold | 30.0 fold | dose-dependent increase |  |  |  |  |  |  |  |  | 
2 | Nitro-oleic acid [OA-NO2, reference compound] |  |  |  |  |  |  |  |  |  |  |  | 23.5 fold | 30.7 fold | returned to baseline | returned to basal levels | 7.7 fold | 115.0 fold | 98.9 fold | 6.8 fold | 1.7 fold

From patent publication US10744106B2, “Reversibly protected thiolated electrophilic fatty acids as prodrugs” (University of Pittsburgh—Of the Commonwealth System of …, priority 2016, dated 2020)
